Assay results as given in paper PMC5374635, “Inhibitory Potential of Constituents from Osmanthus fragrans and Structural Analogues Against Advanced Glycation End Products, α-Amylase, α-Glucosidase, and Oxidative Stress” (Scientific Reports, 2017).
≈ marks a conversion by molar mass, not a printed value.

Experiments:
[1] = DPPH radical scavenging activity; conditions: for IC50 values, DPPH: means ± SE; for times more active than ascorbic acid in DPPH radical scavenging: ratio of IC50 values versus ascorbic acid
Experimental: DPPH radical scavenging activity of each sample for the inhibition of diabetic complications was evaluated as described previously. Methanol solution (100 μL) containing some concentrations of the sample or ascorbic acid (0.2 mg/mL) as a positive control was mixed with 0.2 mM DPPH (100 μL) in wells of a 96-well microplate. Each reaction volume was mixed and allowed to stand in the dark at 28 °C for 30 min. […] The DPPH solution was freshly prepared daily, and was covered and kept in the dark at 4 °C until the measurements were made. Measurements were performed at least in triplicate.

[2] = molecular target: α-glucosidase (EC 3.2.1.20); conditions: for IC50 values, α–Glucosidase: means ± SE; for times more active than acarbose against α-glucosidase: ratio of IC50 values versus acarbose
[3] = molecular target: T1, porcine pancreatic α-amylase (EC 3.2.1.1, type VI) (Sus scrofa, UniProt P00690); assay: α-Amylase inhibition; type: biochemical; conditions: for IC50: means ± SE; for times more active than acarbose against α-amylase: ratio of IC50 values versus acarbose
T1 construct: purchased Sigma-Aldrich (St. Louis, MO, USA) type VI (catalogue number not given)
T1 sequence (P00690 16-511): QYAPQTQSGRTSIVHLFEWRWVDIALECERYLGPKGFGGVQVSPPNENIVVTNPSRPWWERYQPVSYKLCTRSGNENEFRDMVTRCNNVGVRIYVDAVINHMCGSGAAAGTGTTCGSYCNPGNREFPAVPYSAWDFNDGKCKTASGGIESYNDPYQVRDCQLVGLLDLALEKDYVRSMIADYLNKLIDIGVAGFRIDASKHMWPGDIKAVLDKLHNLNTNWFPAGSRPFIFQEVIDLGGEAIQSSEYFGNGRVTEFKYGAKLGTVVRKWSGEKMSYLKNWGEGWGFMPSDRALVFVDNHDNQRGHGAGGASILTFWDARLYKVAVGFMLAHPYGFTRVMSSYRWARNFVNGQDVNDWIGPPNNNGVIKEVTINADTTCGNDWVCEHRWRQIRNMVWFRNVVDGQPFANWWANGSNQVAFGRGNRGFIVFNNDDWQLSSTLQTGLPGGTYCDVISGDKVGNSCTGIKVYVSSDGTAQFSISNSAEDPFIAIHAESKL
Experimental: The inhibitory activity of each sample against α-amylase was measured as described previously. Sample (40 μL) dissolved in sodium phosphate buffer (SPB, 20 mM and pH 6.9) with 6 mM NaCl was added to 1.0 U/ml α-amylase (200 μL) in SPB and incubated at 30 °C for 10 min. After 10 min, 400 μL of 0.3% starch solution in SPB was added to each tube. […] Each tube was incubated in boiling water for 20 min and cooled to 27 °C. The reaction was diluted by adding 10 ml distilled water and absorbance at 540 nm was measured using a UV-Vis spectrophotometer. The control contained 20 mM SPB (pH 6.9, 200 μL) instead of α-amylase.

[4] = test system: AGEs formation; assay: Inhibition of AGEs formation (bovine serum albumin with fructose/glucose, fluorescence); type: biochemical; conditions: for IC50 values, AGE (inhibition of AGEs formation): means ± SE, 37 °C, 7 days; for times more active than aminoguanidine in inhibition of AGEs formation: ratio of IC50 values versus aminoguanidine
Experimental: The inhibitory activity against AGEs formation was measured as described previously. To prepare the AGEs reaction solution, bovine serum albumin (10 mg/mL) dissolved in 50 mM SPB (pH 7.4) was added to 200 mM fructose, 200 mM glucose, and 0.02% NaN3 to prevent the growth of bacteria. The reaction solution (950 μL) was mixed with various concentrations of the samples (50 μL) in 10% (CH3)2SO. After incubation at 37 °C for 7 days, the fluorescence intensity of the reaction solution was analyzed using a spectrofluorometric detector (Bio-Tek Inc., Winooski, VT, USA) with an excitation wavelength of 350 nm and an emission wavelength of 450 nm. Aminoguanidine hydrochloride served as a positive control.

[5] = test system: blood glucose levels in mice; assay: Disaccharide (sucrose) loading test; type: in vivo; conditions: fasted male mice, 50 mg/kg via stomach tube with sucrose 2.5 g/kg, at 15 and 30 mins, compared to sucrose alone
Experimental: After an overnight fast, male mice (31-35 g) were used for acute disaccharide loading tests (Fig. 2). […] A control group was loaded with sucrose only. The blood glucose levels were measured using an Accu-Check Performa portable kit, (Roche Diagnostics Korea Co., Ltd., Seoul, Korea).

[6] = test system: MCF-7 cells; design: method as in PMID 18386789; conditions: by inhibiting Cdk 2 activity; cited from earlier work

| Structure (SMILES) | IC50 values, DPPH [1] | IC50 values, α–Glucosidase [2] | IC50 [3] | IC50 values, AGE (inhibition of AGEs formation) [4] | effect on blood glucose levels [5] | times more active than ascorbic acid in DPPH radical scavenging [1] | times more active than acarbose against α-glucosidase [2] | times more active than acarbose against α-amylase [3] | times more active than aminoguanidine in inhibition of AGEs formation [4] | cell proliferation of MCF-7 cells [6] |
| --- | --- | --- | --- | --- | --- | --- | --- | --- | --- | --- |
| CCCCCCCCCCCCCCCCCC(=O)O [1-Heptadecanecarboxylic acid, 1-heptadecanecarboxylic acid] | 15.6 ± 2.2 µg/mL (≈ 54.8 µM) | 46.2 ± 2.5 µg/mL (≈ 162 µM) | 494 µM | 34.7 ± 2.6 µg/mL | – | – | – | – | – | – |
| CCCCCCCCCCCCCCCC(=O)O [1-Pentadecanecarboxylic acid, 1-pentadecanecarboxylic acid] | 20.8 ± 1.3 µg/mL (≈ 81.1 µM) | 55.4 ± 3.2 µg/mL (≈ 216 µM) | 656 µM | 40.6 ± 0.7 µg/mL | – | – | – | – | – | – |
| O=C1O[C@H]([C@@H](O)CO)C(O)=C1O [Ascorbic acid, reference compound] | 25.5 ± 0.4 µg/mL (≈ 145 µM) | – | – | – | – | – | – | – | – | – |
| CCCCCCCCCCCCCC(=O)O [1-Tridecanecarboxylic acid, 1-tridecanecarboxylic acid] | 24.5 ± 1.8 µg/mL (≈ 107 µM) | 60.4 ± 1.2 µg/mL (≈ 264 µM) | 986 µM | 51.2 ± 1.8 µg/mL | – | – | – | – | – | – |
| CCCCCC=CCC=CCCCCCCCC(=O)O [9,12-Octadecadienoic acid, 9,12-octadecadienoic acid] | 6.8 ± 1.2 µg/mL (≈ 24.2 µM) | 3.4 ± 1.5 µg/mL (≈ 12.1 µM) | 56.3 µM | 15.4 ± 1.8 µg/mL | significant suppressive effect | 3.75 times | 22.21 times | 10.02 times | 3.54 times | – |
| N=C(N)NN [Aminoguanidine, reference compound] | – | – | – | 54.5 ± 0.7 µg/mL | – | – | – | – | – | – |
| CC(=O)C=CC1=C(C)CCCC1(C)C [4-(2,6,6-trimethyl-1-cyclohexenyl)-3-buten-2-one] | 20.5 ± 1.5 µg/mL (≈ 107 µM) | […] | […] | 48.4 ± 2.3 µg/mL | weak suppressive effect | 1.24 times | – | […] | […] | […] |
| CCC=CCC=CCC=CCCCCCCCC(=O)O [9,12,15-Octadecatrienoic acid, 9,12,15-octadecatrienoic acid] | 7.4 ± 0.9 µg/mL (≈ 26.6 µM) | 4.5 ± 2.4 µg/mL (≈ 16.2 µM) | 76.1 µM | 18.2 ± 2.3 µg/mL | – | 3.45 times | 16.78 times | 7.47 times | 2.95 times | – |
| CC(=O)C=CC1C(C)=CCCC1(C)C (centres unmarked) [4-(2,6,6-trimethyl-2-cyclohexenyl)-3-buten-2-one] | 23.2 ± 2.5 µg/mL (≈ 121 µM) | 33.2 ± 1.8 µg/mL (≈ 173 µM) | – | 50.5 ± 1.8 µg/mL | – | – | – | – | – | – |
| CCCCCCCCC=CCCCCCCCC(=O)O [9-Octadecenoic acid, 9-octadecenoic acid] | 7.6 ± 1.5 µg/mL (≈ 26.9 µM) | 4.8 ± 0.9 µg/mL (≈ 17 µM) | 83.2 µM | 18.8 ± 1.1 µg/mL | – | – | – | – | – | – |
